PMC3704662, “Synthesis, docking and acetylcholinesterase inhibitory assessment of 2-(2-(4-Benzylpiperazin-1-yl)ethyl)isoindoline-1,3-dione derivatives with potential anti-Alzheimer effects” (DARU Journal of Pharmaceutical Sciences, 2013)

Molecular target: T1, acetylcholinesterase from electric eel (AChE, E.C. 3.1.1.7, Type V-S) (Electrophorus electricus, UniProt O42275)
T1 construct: purchased Sigma-Aldrich (Steinheim, Germany) Type V-S (catalogue number not given)
Experiment: biochemical
Settings: Ellman test; IC50 ± SEM; 15 min preincubation at 25°C; pH 8.0; acetylthiocholine iodide substrate; triplicate; read-out: IC50 of in vitro acetylcholinesterase assay
Procedure: Lyophilized powder of acetylcholinesterase from electric eel source (AChE, E.C. 3.1.1.7, Type V-S, 1000 unit) was purchased from Sigma-Aldrich (Steinheim, Germany). 5,5’-Dithiobis-(2-nitrobenzoic acid), potassium dihydrogen phosphate, dipotassium hydrogen phosphate, potassium hydroxide, sodium hydrogen carbonate, and acetylthiocholine iodide were purchased from Fluka (Buchs, Switzerland). […] The Ellman test was carried out for assessment of the anticholinesterase activity of intended compounds in vitro. Prior to use, all solutions were adjusted to 25°C. […] The assay solution consisted of a 0.1 M potassium phosphate buffer pH 8.0, with the addition of 0.01 M 5,50-dithio-bis(2-nitrobenzoic acid), 2.5 unit/mL of enzyme solution (AChE, E.C. 3.1.1.7, Type V-S, lyophilized powder, from electric eel) (Sigma Chemical). […] After rapid and immediate mixing the change of absorption was measured at 412 nm. In order to justify non enzymatic reaction assays were carried out with a blank containing all components except AChE.
The blank reading contained 3 ml buffer, 200 μl water, 100 μl DTNB and 20 μl substrate. The reaction rates were calculated, and the percent inhibition of test compounds was determined. Each concentration was analyzed in triplicate, and IC50 values were determined graphically from inhibition curves (log inhibitor concentration vs percent of inhibition).

T1 sequence (O42275 24-633): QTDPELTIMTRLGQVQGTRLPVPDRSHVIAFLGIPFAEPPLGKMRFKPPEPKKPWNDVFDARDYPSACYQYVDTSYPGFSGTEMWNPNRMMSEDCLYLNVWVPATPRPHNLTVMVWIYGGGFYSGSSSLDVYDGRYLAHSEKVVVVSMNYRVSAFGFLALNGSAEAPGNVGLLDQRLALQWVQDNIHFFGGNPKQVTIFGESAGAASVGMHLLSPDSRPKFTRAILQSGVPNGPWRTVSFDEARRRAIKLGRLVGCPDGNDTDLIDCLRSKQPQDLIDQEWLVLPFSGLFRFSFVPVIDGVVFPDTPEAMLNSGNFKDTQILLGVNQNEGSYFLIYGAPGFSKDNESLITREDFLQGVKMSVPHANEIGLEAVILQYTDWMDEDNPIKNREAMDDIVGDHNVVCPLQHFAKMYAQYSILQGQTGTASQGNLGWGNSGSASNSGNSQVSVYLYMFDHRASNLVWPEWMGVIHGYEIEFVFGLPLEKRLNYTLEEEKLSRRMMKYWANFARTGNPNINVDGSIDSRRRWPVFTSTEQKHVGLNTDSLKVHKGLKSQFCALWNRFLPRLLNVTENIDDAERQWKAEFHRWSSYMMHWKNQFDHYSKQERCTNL

With `O=C1c2ccccc2C(=O)N1CCN1CCN(Cc2ccccc2Cl)CC1` [Compound 4a, 2-(2-(4-(2-Chlorobenzyl)piperazin-1-yl)ethyl)isoindoline-1,3-dione] as the compound, how does the IC50 read?
Its IC50 is 0.91 ± 0.045 µM.

With `O=C1c2ccccc2C(=O)N1CCN1CCN(Cc2cccc(Cl)c2)CC1` [Compound 4b, 2-(2-(4-(3-Chlorobenzyl)piperazin-1-yl)ethyl)isoindoline-1,3-dione] as the compound, how does the IC50 read?
Its IC50 is 85 ± 12 µM.

For `O=C1c2ccccc2C(=O)N1CCN1CCN(Cc2ccc(Cl)cc2)CC1` [Compound 4c, 2-(2-(4-(4-Chlorobenzyl)piperazin-1-yl)ethyl)isoindoline-1,3-dione], which IC50 is on record?
The IC50 was 26 ± 5 µM.

With `O=C1c2ccccc2C(=O)N1CCN1CCN(Cc2ccccc2F)CC1` [Compound 4d, 2-(2-(4-(2-Fluorobenzyl)piperazin-1-yl)ethyl)isoindoline-1,3-dione] as the compound, how does the IC50 read?
The IC50 was 23 ± 7 µM.

Which IC50 does the source give for `O=C1c2ccccc2C(=O)N1CCN1CCN(Cc2cccc(F)c2)CC1` [Compound 4e, 2-(2-(4-(3-Fluorobenzyl)piperazin-1-yl)ethyl)isoindoline-1,3-dione] here?
The IC50 was 74 ± 11 µM.

With `O=C1c2ccccc2C(=O)N1CCN1CCN(Cc2ccc(F)cc2)CC1` [Compound 4f, 2-(2-(4-(4-Fluorobenzyl)piperazin-1-yl)ethyl)isoindoline-1,3-dione] as the compound, how does the IC50 read?
Its IC50 is 42 ± 8 µM.

`COc1cccc(CN2CCN(CCN3C(=O)c4ccccc4C3=O)CC2)c1` [Compound 4g, 2-(2-(4-(3-Methoxybenzyl)piperazin-1-yl)ethyl)isoindoline-1,3-dione] was tested. Which IC50 did it give?
Its IC50 is 5.5 ± 0.7 µM.

With `COc1ccc(CN2CCN(CCN3C(=O)c4ccccc4C3=O)CC2)cc1` [Compound 4h, 2-(2-(4-(4-Methoxybenzyl)piperazin-1-yl)ethyl)isoindoline-1,3-dione] as the compound, how does the IC50 read?
The IC50 was 72 ± 9 µM.

For `O=C1c2ccccc2C(=O)N1CCN1CCN(Cc2ccccc2[N+](=O)[O-])CC1` [Compound 4i, 2-(2-(4-(2-Nitrobenzyl)piperazin-1-yl)ethyl)isoindoline-1,3-dione], which IC50 is on record?
The IC50 was 36 ± 5 µM.

With `O=C1c2ccccc2C(=O)N1CCN1CCN(Cc2cccc([N+](=O)[O-])c2)CC1` [Compound 4j, 2-(2-(4-(3-Nitrobenzyl)piperazin-1-yl)ethyl)isoindoline-1,3-dione] as the compound, how does the IC50 read?
Its IC50 is 59 ± 6 µM.

Which IC50 does the source give for `O=C1c2ccccc2C(=O)N1CCN1CCN(Cc2ccc([N+](=O)[O-])cc2)CC1` [Compound 4k, 2-(2-(4-(4-Nitrobenzyl)piperazin-1-yl)ethyl)isoindoline-1,3-dione] here?
Its IC50 is 40 ± 4 µM.

With `O=C1c2ccccc2C(=O)N1CCN1CCN(Cc2ccccc2)CC1` [Compound 4l, 2-(2-(4-Benzylpiperazin-1-yl)ethyl)isoindoline-1,3-dione] as the compound, how does the IC50 read?
The IC50 was 9 ± 2 µM.
